According to patent US10227331B2 (priority 2015, dated 2019):

Legend:
[1] = molecular target: IMP-1 (Serratia marcescens, UniProt P52699); experiment: biochemical; type: biochemical; settings: CCF2-FA substrate, 2 hours at 25° C; read-out: IMP-1 IC50
Summary of the method: (§1)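 Two-hour, 25° C incubation of enzyme with inhibitor and CCF2-FA (7-hydroxycoumarin–cephalosporin–fluorescein). Fluorescence read-out; IC50 via 4-parameter fit.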

[2] = molecular target: NDM-1 (Klebsiella pneumoniae, UniProt C7C422); experiment: biochemical; type: biochemical; settings: CCF2-FA substrate, 2 hours at 25° C; read-out: NDM-1 IC50
Summary of the method: as §1

[3] = molecular target: VIM-1 (Pseudomonas aeruginosa (strain ATCC 15692 / DSM 22644 / CIP 104116 / JCM 14847 / LMG 12228 / 1C / PRS 101 / PAO1), UniProt A0A0F7KYQ8); experiment: biochemical; settings: CCF2-FA substrate, 2 hours at 25° C
Summary of the method: as §1

[4] = system: Escherichia coli expressing NDM-1 (CLB30005, CLB30016); type: cell-based; settings: with imipenem 1 μg/ml, 95% inhibition of bacterial growth; for Escherichia coli MITC95: NDM-1 (CLB30016)
Summary of the method: (§2)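 Colonies from overnight 35 °C blood-agar cultures were suspended in saline, diluted 1:100 into 1.1× CAMHB and exposed to test compound with or without imipenem at 1 μg/ml. After 22–24 h at 35 °C, absorbance was read to find the concentration restoring imipenem susceptibility.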

[5] = system: Klebsiella pneumoniae expressing VIM-1 (IHMA599644); type: cell-based; settings: with imipenem 1 μg/ml, 95% inhibition of bacterial growth; for Klebsiella pneumoniae MITC95: VIM-1 (IHMA599644)
Summary of the method: as §2

[6] = system: Serratia marcescens expressing IMP-1 (CL5741); type: cell-based; settings: with imipenem 1 μg/ml, 95% inhibition of bacterial growth; for Serratia marcescens MITC95: IMP-1 (CL5741)
Summary of the method: as §2

[7] = system: P. aeruginosa expressing IMP-1, efflux+ (MB9798); type: cell-based, Pseudomonas aeruginosa; settings: for P. aeruginosa expressing IMP-1, efflux+ (MB9798) MITC95: imipenem at 2 μg/mL, in the presence of a class A, C, D serine β-lactamase inhibitor closely related to relebactam; for Efflux ratio: ratio MITC95 PA_9798/MITC95 PA_9799
Description: (§3) The strain background is Pseudomonas aeruginosa PAO1.

[8] = system: P. aeruginosa expressing IMP-1, efflux− (MB9799); experiment: Efflux: concentration of MBL inhibitor which restores susceptibility to imipenem; type: cell-based, Pseudomonas aeruginosa; settings: imipenem at 2 μg/mL, in the presence of a class A, C, D serine β-lactamase inhibitor closely related to relebactam
Description: as §3

Chain of NDM-1 (C7C422 whole entry, looked up, species assumed): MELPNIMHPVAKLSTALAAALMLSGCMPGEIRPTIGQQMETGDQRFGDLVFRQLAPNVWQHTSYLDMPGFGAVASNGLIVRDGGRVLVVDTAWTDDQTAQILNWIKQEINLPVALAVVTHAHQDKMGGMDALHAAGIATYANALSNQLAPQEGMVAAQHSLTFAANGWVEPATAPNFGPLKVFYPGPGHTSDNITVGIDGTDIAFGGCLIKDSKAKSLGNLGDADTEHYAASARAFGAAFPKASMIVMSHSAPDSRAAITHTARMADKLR
Chain of IMP-1 (P52699 whole entry, looked up, species assumed): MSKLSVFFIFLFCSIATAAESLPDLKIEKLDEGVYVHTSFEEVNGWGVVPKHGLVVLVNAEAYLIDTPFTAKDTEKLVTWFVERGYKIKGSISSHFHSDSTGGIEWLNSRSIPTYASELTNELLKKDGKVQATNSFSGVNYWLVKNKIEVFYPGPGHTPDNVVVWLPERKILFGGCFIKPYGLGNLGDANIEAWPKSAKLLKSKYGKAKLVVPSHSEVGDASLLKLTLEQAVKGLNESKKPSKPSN

| Compound | IC50 [1] [nM] | IC50 [2] [nM] | IC50 [3] [nM] | Escherichia coli expressing NDM-1 (CLB30016) MITC95 [4] [µM] | Klebsiella pneumoniae expressing VIM-1 (IHMA599644) MITC95 [5] [µM] | Serratia marcescens expressing IMP-1 (CL5741) MITC95 [6] [µM] | P. aeruginosa expressing IMP-1, efflux+ (MB9798) MITC95 [7] [µM] | Efflux ratio [7] | P. aeruginosa expressing IMP-1, efflux− (MB9799) MITC95 [8] [µM] | Escherichia coli MITC95 [4] [µM] | Klebsiella pneumoniae MITC95 [5] [µM] | Serratia marcescens MITC95 [6] [µM] |
| --- | --- | --- | --- | --- | --- | --- | --- | --- | --- | --- | --- | --- |
| Nc1nc2cccc(-c3ccc(SC4CCNCC4)c(S(N)(=O)=O)c3-c3nn[nH]n3)c2[nH]1 [Example 3, 3-(2-amino-3H-benzo[d]imidazol-4-yl)-6-(piperidin-4-ylthio)-2-(2H-tetrazol-5-yl)benzenesulfonamide] | 109 | 3.27 | 79.5 | 0.125 | 25 | 6.25 | 25 | 9.75 | 2.563 | – | – | – |
| NS(=O)(=O)c1c(S(=O)(=O)[C@@H]2CCNC2)ccc(-c2cccc3cn[nH]c23)c1-c1nn[nH]n1 [Example 185, 3-(1H-indazol-7-yl)-6-((R)-pyrrolidin-3-ylsulfonyl)-2-(2H-tetrazol-5-yl)benzenesulfonamide] | 0.466 | 0.657 | 0.55 | 0.7813 | 3.125 | 1.563 | 1.563 | 2.00 | 0.7813 | – | – | – |
| NCCNC(=O)c1cccc(-c2ccc(S(=O)(=O)C3CNC3)c(S(N)(=O)=O)c2-c2nn[nH]n2)c1N [Example 288, 2-amino-N-(2-aminoethyl)-4′-(azetidin-3-ylsulfonyl)-5′-sulfamoyl-6′-(2H-tetrazol-5-yl)biphenyl-3-carboxamide] | 9.83 | 1.67 | 0.861 | – | – | – | 3.125 | 4.00 | 0.7813 | 3.125 | 1.563 | 3.125 |
| CC(C)(N)CS(=O)(=O)c1ccc(-c2cccc3sc(N)nc23)c(-c2nn[nH]n2)c1S(N)(=O)=O [Example 94, 6-(2-amino-2-methylpropylsulfonyl)-3-(2-aminobenzo[d]thiazol-4-yl)-2-(2H-tetrazol-5-yl)benzenesulfonamide] | 0.504 | 0.206 | 0.222 | 0.7813 | 3.125 | 1.563 | 3.125 | 2.00 | 1.563 | – | – | – |
| NCCc1nc2c(-c3ccc(S(=O)(=O)CCN)c(S(N)(=O)=O)c3-c3nn[nH]n3)cccc2[nH]1 [Example 306, 3-(2-(2-aminoethyl)-1H-benzo[d]imidazol-4-yl)-6-((2-aminoethyl)sulfonyl)-2-(2H-tetrazol-5-yl) benzenesulfonamide] | 2.84 | 0.848 | 0.374 | – | – | – | 1.563 | 2.00 | 0.7813 | 0.7813 | 1.563 | 0.7813 |
